ChEMBL document CHEMBL4483862, “Open-source discovery of chemical leads for next-generation chemoprotective antimalarials” (2018)

Tested on: Plasmodium berghei
Test: Luciferase/luciferin-expressing antifolate-resistant parasites were used to infect a culture of HepG2 cells that were pre-incubated with compounds. Infected hepatocytes emit light due to the luciferase reaction. Assay results are presented as the percent inhibition of light emission compared to control. […]
Type: functional
Conditions: sporozoite; for IC90: read-out: LUCIFERASE INFECTION ASSAY - IC90
[1] = read-out: LUCIFERASE INFECTION ASSAY - IC50

Compound | IC90 [µM] | IC50 [1] [µM] | further results
O=C(Nc1cccc(C2NCC(c3ccccc3Cl)c3c2[nH]c2ccccc32)c1)c1ccc(Cl)cc1 (stereo not drawn) | > 10 |  | IC50 (FFLUC_HILL_SLOPE 18, FFLUC_R_SQUARED 0.972, PBLUC_HILL_SLOPE 3.03, PBLUC_R_SQUARED 0.515, read-out: LUCIFERASE INFECTION ASSAY - IC50): 7.4 µM
O=C(NCC1COc2ccccc2O1)c1cccc(S(=O)(=O)N2CCC(Cc3ccccc3)CC2)c1 (stereo not drawn) | > 10 | > 10 | 
Cc1n[nH]c(=S)n1C1CCCCC1 | > 10 | > 10 | 
O=C(O)Cc1csc(-c2cc(Br)cs2)n1 | > 10 | > 10 | 
O=C(NCc1cccc(Cl)c1)C1=COC2=NC(=O)N(Cc3cccc(Cl)c3)CCN12 | > 10 | > 10 | 
CC(C)n1ncc2cc(C(=O)Nc3nc(-c4ccccn4)cs3)cnc21 | 2.1 | 1.07 | 
N#C/C(=N\Nc1ccc(Cl)cc1)C(=O)c1ccc(Cl)cc1 | 2.91 |  | IC50 (HEPG2TOX_HILL_SLOPE 1.51, HEPG2TOX_R_SQUARED 0.876, PBLUC_HILL_SLOPE 2.05, PBLUC_R_SQUARED 0.674, read-out: LUCIFERASE INFECTION ASSAY - IC50): 0.996 µM
COc1ccc(CCN=C(S)Nc2ccccc2C)cc1 | > 11 | > 11 | 
Cc1ccc(OCC(=O)NS(=O)(=O)c2ccccc2)cc1 | > 10.8 | > 10.8 | 
COc1ccc(/C=C2\CSc3ccc(Cl)cc3C2=O)cc1 | 5.42 |  | IC50 (HEPG2TOX_HILL_SLOPE 3.81, HEPG2TOX_R_SQUARED 0.977, PBLUC_HILL_SLOPE 10.6, PBLUC_R_SQUARED 0.089, read-out: LUCIFERASE INFECTION ASSAY - IC50): 4.41 µM
CN(C)c1ccc(S(=O)(=O)N2CCCCC2)cc1NC(=S)NCc1ccc2c(c1)OCO2 | > 10 | > 10 | 
Cc1ccc(-c2nc(CN3C(=O)NC4(CCCCCC4)C3=O)cs2)cc1 | > 10 |  | IC50 (PBLUC_HILL_SLOPE 31.5, PBLUC_R_SQUARED 0.344, read-out: LUCIFERASE INFECTION ASSAY - IC50): 9.91 µM
C=C(C)CC(NCc1ccco1)c1ccc(OC)cc1 (stereo not drawn) | > 12.2 | 8.94 | 
COc1ccc(OC)c(-c2csc(NC(=O)c3c(C)nc(C(C)C)nc3SC)n2)c1 | > 10 |  | IC50 (FFLUC_HILL_SLOPE 4.18, FFLUC_R_SQUARED 0.209, HEPG2TOX_HILL_SLOPE 6.05, HEPG2TOX_R_SQUARED 0.136, PBLUC_HILL_SLOPE 1.9, PBLUC_R_SQUARED 0.115, read-out: LUCIFERASE INFECTION ASSAY - IC50): > 10 µM
COc1cc(NC(=O)COC(=O)c2c3c(nc4ccccc24)CCC(C(C)(C)C)C3)c(C)cc1[N+](=O)[O-] (stereo not drawn) | > 10 |  | IC50 (HEPG2TOX_HILL_SLOPE 0.52, HEPG2TOX_R_SQUARED 0.623, PBLUC_HILL_SLOPE 14.9, PBLUC_R_SQUARED 0.282, read-out: LUCIFERASE INFECTION ASSAY - IC50): > 10 µM
N#Cc1c(Cl)cccc1N1CCCC1c1ccc2c(c1)OCCCO2 (stereo not drawn) | > 10 |  | IC50 (HEPG2TOX_HILL_SLOPE 1.92, HEPG2TOX_R_SQUARED 0.934, read-out: LUCIFERASE INFECTION ASSAY - IC50): > 10 µM
CCc1c(C(=O)/C=C/c2cc(OC)c(O)c(OC)c2)oc2ccc(C)cc12 | 7.96 |  | IC50 (PBLUC_HILL_SLOPE 25.7, 54.1, PBLUC_R_SQUARED 0.301, 0.609, read-out: LUCIFERASE INFECTION ASSAY - IC50): 7.44 µM
COc1cc(-c2nccc3n[nH]c(C4CC4)c23)cc(OC)c1OC | > 10 |  | IC50 (HEPG2TOX_HILL_SLOPE 1.34, HEPG2TOX_R_SQUARED 0.994, read-out: LUCIFERASE INFECTION ASSAY - IC50): > 10 µM
Cc1c(C(=O)Nc2ccccc2O)cnn1-c1cccc(C(F)(F)F)c1 | 3.64 |  | IC50 (PBLUC_HILL_SLOPE 22.3, PBLUC_R_SQUARED 0.482, read-out: LUCIFERASE INFECTION ASSAY - IC50): 3.29 µM
CCn1nc(C)cc1-c1nnc(SCc2ccccc2)n1-c1cccc(C(F)(F)F)c1 | > 7.44 | > 7.44 | 
NC(=O)c1cc(NC(=O)c2cccs2)ccc1N1CCCCC1 | 4.83 |  | IC50 (HEPG2TOX_HILL_SLOPE 7.03, HEPG2TOX_R_SQUARED 0.757, PBLUC_HILL_SLOPE 7.92, PBLUC_R_SQUARED 0.39, read-out: LUCIFERASE INFECTION ASSAY - IC50): 3.66 µM
Fc1ccc2[nH]cc(CCNc3nc(Cl)nc4nc[nH]c34)c2c1 | 4.27 |  | IC50 (HEPG2TOX_HILL_SLOPE 2.14, HEPG2TOX_R_SQUARED 0.948, PBLUC_HILL_SLOPE 1.79, PBLUC_R_SQUARED 0.853, read-out: LUCIFERASE INFECTION ASSAY - IC50): 1.25 µM

Compound | IC90 [µM] | IC50 [1] [µM] | further results
O=C(COC(=O)COc1ccc2c3c(c(=O)oc2c1)CCC3)Nc1ccc(F)c(F)c1F | > 10 | > 10 | 
Cc1ccc(Sc2nc3ccccc3nc2NS(=O)(=O)c2ccc(F)cc2C)cc1 | > 10 |  | IC50 (HEPG2TOX_HILL_SLOPE 0.43, HEPG2TOX_R_SQUARED 0.741, read-out: LUCIFERASE INFECTION ASSAY - IC50): > 10 µM
O=C(Nc1ccc(C(F)(F)F)cc1[N+](=O)[O-])c1ccccc1O | 3.69 |  | IC50 (HEPG2TOX_HILL_SLOPE 10.5, HEPG2TOX_R_SQUARED 0.302, PBLUC_HILL_SLOPE 15.7, PBLUC_R_SQUARED 0.498, read-out: LUCIFERASE INFECTION ASSAY - IC50): 3.21 µM
Cc1ccc(C)c(NC(=O)CN(C)C(=O)CN(C)C(C)c2ccccc2)c1 (stereo not drawn) | > 10 | > 10 | 
O=S(=O)(c1cc(C(F)(F)F)ccn1)c1cccs1 | > 11.3 | > 11.3 | 
OC1CCC(Nc2nn3cc(-c4ccccc4)nc3s2)CC1 (stereo not drawn) | 0.247 |  | IC50 (FFLUC_HILL_SLOPE 1.59, FFLUC_R_SQUARED 0.907, PBLUC_HILL_SLOPE 0.891, PBLUC_R_SQUARED 0.938, read-out: LUCIFERASE INFECTION ASSAY - IC50): 0.0209 µM
O=C(Nc1nc2ccccc2[nH]1)c1cccnc1Nc1ccccc1F | 3.81 |  | IC50 (HEPG2TOX_HILL_SLOPE 1.38, HEPG2TOX_R_SQUARED 0.863, PBLUC_HILL_SLOPE 3.37, PBLUC_R_SQUARED 0.741, read-out: LUCIFERASE INFECTION ASSAY - IC50): 1.98 µM
CC1CC(OCC(O)CN2CCN(c3ccc(F)cc3)CC2)CC(C)(C)C1 (stereo not drawn) | > 7.31 |  | IC50 (FFLUC_HILL_SLOPE 15.4, FFLUC_R_SQUARED 0.216, PBLUC_HILL_SLOPE 1.14, PBLUC_R_SQUARED 0.115, read-out: LUCIFERASE INFECTION ASSAY - IC50): > 7.31 µM
O=C1CCCN1CCCNc1cc(-c2ccccc2)c2ccccc2n1 | 4.46 |  | IC50 (HEPG2TOX_HILL_SLOPE 0.987, HEPG2TOX_R_SQUARED 0.959, PBLUC_HILL_SLOPE 13.1, PBLUC_R_SQUARED 0.545, read-out: LUCIFERASE INFECTION ASSAY - IC50): 3.77 µM
CC(C)(C)S(=O)(=O)/C(C#N)=C/Nc1ccc(OC(F)(F)F)cc1 | > 9.47 | > 9.47 | 
COc1ccc(CCN2C(=O)N(C(C)C)C(=O)C23CCN(Cc2ccc(Cl)cc2)CC3)cc1 | > 7.02 |  | IC50 (PBLUC_HILL_SLOPE 14.8, PBLUC_R_SQUARED 0.317, read-out: LUCIFERASE INFECTION ASSAY - IC50): 6.11 µM
CN(C)S(=O)(=O)c1cc(C(=O)Nc2nc(-c3ccccc3)cn2/N=C/c2ccccc2)ccc1Cl | > 10 |  | IC50 (PBLUC_HILL_SLOPE 2.59, PBLUC_R_SQUARED 0.747, read-out: LUCIFERASE INFECTION ASSAY - IC50): 5.75 µM
CCNc1nnc(SCC(=O)N2CCNC2=O)s1 | > 10 | > 10 | 
CCCCC#CC1(O)c2ccccc2C(=O)N1c1ccccc1 (stereo not drawn) | 9.4 |  | IC50 (HEPG2TOX_HILL_SLOPE 16.6, HEPG2TOX_R_SQUARED 0.582, PBLUC_HILL_SLOPE 7.49, PBLUC_R_SQUARED 0.197, read-out: LUCIFERASE INFECTION ASSAY - IC50): 7.01 µM
OC1CCC(Nc2nn3c(-c4ccc(F)c(Cl)c4)cnc3s2)CC1 (stereo not drawn) | > 9 | > 9 | 
CC(=N\Nc1ccc(F)cc1)/C(=N/O)C(=O)Nc1ccccc1 | > 10.5 | > 10.5 | 
O=C(COc1ccccc1C(=O)N/N=C/c1ccccc1O)Nc1ccc(SC(F)F)cc1 | 1.53 |  | IC50 (HEPG2TOX_HILL_SLOPE 0.754, HEPG2TOX_R_SQUARED 0.891, PBLUC_HILL_SLOPE 11.1, PBLUC_R_SQUARED 0.496, read-out: LUCIFERASE INFECTION ASSAY - IC50): 1.26 µM
O=C(Nc1ccc(Cl)c(Cl)c1)OCCNC(=O)c1cccc(S(=O)(=O)N2CCCC2)c1 | 9.3 |  | IC50 (HEPG2TOX_HILL_SLOPE 9.3, HEPG2TOX_R_SQUARED 0.805, PBLUC_HILL_SLOPE 3.66, PBLUC_R_SQUARED 0.453, read-out: LUCIFERASE INFECTION ASSAY - IC50): 5.1 µM
COc1ccc(Cn2c(C3CC(=O)N(C)C3)nc3ccccc32)cc1 (stereo not drawn) | > 9.84 |  | IC50 (PBLUC_HILL_SLOPE 3.53, PBLUC_R_SQUARED 0.0667, read-out: LUCIFERASE INFECTION ASSAY - IC50): 8.05 µM
Clc1cnc(N/N=C/c2sc(N3CCCCC3)nc2-c2cccs2)c(Cl)c1 | 9.96 |  | IC50 (HEPG2TOX_HILL_SLOPE 1.78, HEPG2TOX_R_SQUARED 0.499, PBLUC_HILL_SLOPE 5.62, PBLUC_R_SQUARED 0.563, read-out: LUCIFERASE INFECTION ASSAY - IC50): 6.74 µM
Cc1cc(/C=N/Nc2ccccc2[N+](=O)[O-])c(C)n1CC(C)C | 8.36 |  | IC50 (PBLUC_HILL_SLOPE 1.12, PBLUC_R_SQUARED 0.805, read-out: LUCIFERASE INFECTION ASSAY - IC50): 1.17 µM
COC(=O)c1c(NC(=O)c2ccco2)c2cc(NC3CCN(C(C)C)CC3)cnc2n1CCC(C)C | > 6.66 |  | IC50 (PBLUC_HILL_SLOPE 4.28, PBLUC_R_SQUARED 0.61, read-out: LUCIFERASE INFECTION ASSAY - IC50): 4.64 µM
